Results published in patent publication US20120110703A1, “PROTEIN HAVING NOVEL PRENYLT[…] AND GENE ENCODING THE SAME” (KIRIN HOLDINGS KABUSHIKI KAISHA, priority 2009, published 2012).

Columns and labels:
H1PT1 prenyltransferase = target: T1, H1PT1 prenyltransferase (Humulus lupulus, UniProt A0A0B4ZTQ2); assay: Prenyltransferase activity of recombinant H1PT1 (yeast microsome fraction), LC-MS analysis of products; assay type: biochemical; conditions: for activity of transferring a prenyl group to substrate (substrate specificity): geranyl diphosphate as prenyl group donor, LCMS-IT-TOF, FIGS. 6 and 7
T1 construct: made in house; host or cells: Saccharomyces cerevisiae W303-1A-Δcoq2 (microsome fraction)
T1 sequence (A0A0B4ZTQ2 47-408): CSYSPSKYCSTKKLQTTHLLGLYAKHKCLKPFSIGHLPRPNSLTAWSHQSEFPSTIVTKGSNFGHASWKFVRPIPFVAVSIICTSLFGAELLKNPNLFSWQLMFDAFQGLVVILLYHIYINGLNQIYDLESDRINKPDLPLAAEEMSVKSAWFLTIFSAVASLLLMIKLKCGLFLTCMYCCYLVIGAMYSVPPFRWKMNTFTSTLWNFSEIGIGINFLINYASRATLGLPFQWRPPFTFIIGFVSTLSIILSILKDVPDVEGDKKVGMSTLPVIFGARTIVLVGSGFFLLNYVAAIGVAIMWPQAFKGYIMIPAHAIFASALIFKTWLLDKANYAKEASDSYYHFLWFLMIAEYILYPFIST
Procedure: (§1) The enzyme of the present invention (340 μg to 730 μg), a substrate aromatic compound (1 mM) such as flavonoid, a prenyl group donor (1 mM), and MgCl2 (20 mM) are mixed in a 100 mM Tris-HCl buffer (pH 7.5) to bring the amount of the resultant to 200 μl, and the reaction is allowed to proceed at 30° C. overnight. After the completion of the reaction, the product is extracted with ethyl acetate, dried, and dissolved in MeOH. The resultant may be analyzed using a mass spectrometer or via chromatography.
Cloned plasmids (pDR196-H1PT1 and pDR196-H1PT2) comprising each full-length sequence of the two gene clusters (H1PT1 and H1PT2) were introduced into the yeast strain (W303-1A-Δcoq2) by the lithium acetate method. Culture was conducted in 180 ml of SD-Ura liquid medium up to the logarithmic growth phase to express recombinant proteins in yeast transformants, and microsome fractions were prepared therefrom using the method of Yazaki et al. (JBC, 2002, 277, 6240-6246). The total amount of the reaction solution was adjusted to 200 μl by mixing 340 μg to 730 μg of proteins from the microsome fractions, flavonoid (1 mM), a prenyl group donor (1 mM), 20 mM MgCl2, and 100 mM Tris-HCl buffer (pH 7.5), and the reaction was allowed to proceed at 30° C. overnight. After the completion of the reaction, the product was extracted with ethyl acetate, dried, and dissolved in methanol (MeOH). The resultant was analyzed using Shimadzu LCMS-2010A and LCMS-IT-TOF (Shimadzu Corporation), TSK-GEL ODS-80Ts 2.0 mm×25 cm (TOSOH), and a solvent system (0.3% formic acid:acetonitrile=3:7) at a flow rate of 0.2 ml/min−1. […] These compounds had not been prepared via the heterologous expression system with the use of a plant-derived gene in the past. 6-Geranylnaringenin (peak c in FIG. 4) was compared with a standard sample (provided by Associate professor Tomohisa Kuzuyama, the University of Tokyo), and the same retention time and identical fragments were observed (FIG. 5). Thus, novel prenyltransferase (i.e., H1PT1 full-length: 1,224 bp, ORF: […].; H1PT2 full-length: 1,233 bp, ORF: 411 a.a.) was obtained. The amino acid sequences of proteins encoded by H1PT1 and H1PT2 are shown in SEQ ID NOs: 1 and 2, respectively. The nucleotide sequences of H1PT1 and H1PT2 are shown in SEQ ID NOs: 3 and 4, respectively. […] Thus, H1PT1 was mainly subjected to analysis as described below; however, it was also possible to analyze H1PT2 in the same manner.
The Sophora flavescens gene (JP Patent Publication (Kokai) No. 2008-220304 A) and the soybean gene (Akashi et al., Plant Physiology 149: 683-693, 2009), which are already known, are known to encode enzymes that interact with limited substrates with very high specificity. The enzymatic properties of recombinant H1PT1 were analyzed using LCMS-IT-TOF. Geranyl diphosphate was used as a prenyl group donor for prenylation of various flavonoid-associated compounds (e.g., isoliquiritigenin, sakuranetin, taxifolin, or genistein).

H1PT2 prenyltransferase = target: T2, H1PT2 prenyltransferase (Humulus lupulus, UniProt E5RP65); assay: Prenyltransferase activity of recombinant H1PT2 (yeast microsome fraction), LC-MS analysis of products; assay type: biochemical; conditions: flavonoid 1 mM, geranyl diphosphate 1 mM as prenyl group donor, 20 mM MgCl2, pH 7.5, 30° C. overnight; FIG. 4
T2 construct: made in house; host or cells: Saccharomyces cerevisiae W303-1A-Δcoq2 (microsome fraction)
T2 sequence (E5RP65 92-411): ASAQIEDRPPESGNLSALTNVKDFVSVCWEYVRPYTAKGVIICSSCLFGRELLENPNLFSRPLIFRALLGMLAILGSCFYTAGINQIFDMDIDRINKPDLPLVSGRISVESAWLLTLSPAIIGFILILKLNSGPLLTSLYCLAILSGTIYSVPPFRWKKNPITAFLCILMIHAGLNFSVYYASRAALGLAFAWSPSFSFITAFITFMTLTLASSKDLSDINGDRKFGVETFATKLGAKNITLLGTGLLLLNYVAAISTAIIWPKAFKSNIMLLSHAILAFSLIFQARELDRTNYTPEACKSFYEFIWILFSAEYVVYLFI
Procedure: as §1
Cloned plasmids (pDR196-H1PT1 and pDR196-H1PT2) comprising each full-length sequence of the two gene clusters (H1PT1 and H1PT2) were introduced into the yeast strain (W303-1A-Δcoq2) by the lithium acetate method. Culture was conducted in 180 ml of SD-Ura liquid medium up to the logarithmic growth phase to express recombinant proteins in yeast transformants, and microsome fractions were prepared therefrom using the method of Yazaki et al. (JBC, 2002, 277, 6240-6246). […] The resultant was analyzed using Shimadzu LCMS-2010A and LCMS-IT-TOF (Shimadzu Corporation), TSK-GEL ODS-80Ts 2.0 mm×25 cm (TOSOH), and a solvent system (0.3% formic acid:acetonitrile=3:7) at a flow rate of 0.2 ml/min−1. […]

SMILES	activity of transferring a prenyl group to substrate (substrate specificity) (H1PT1 prenyltransferase)	prenylated products from substrate (H1PT1 prenyltransferase; flavonoid 1 mM, geranyl diphosphate 1 mM as prenyl group donor, 20 mM MgCl2, pH 7.5, 30° C. overnight, FIG. 4)	prenylated products from substrate (H1PT2 prenyltransferase)
O=c1c(-c2ccc(O)cc2)coc2cc(O)cc(O)c12 [genistein]	activity of transferring a prenyl group to all substrates was observed	–	–
O=C(/C=C/c1ccc(O)cc1)c1ccc(O)cc1O [isoliquiritigenin]	activity of transferring a prenyl group to all substrates was observed	–	–
O=C1C[C@@H](c2ccc(O)cc2)Oc2cc(O)cc(O)c21 [naringenin]	–	a compound into which prenyl had been introduced at position 6 and a compound into which prenyl was deduced to have been introduced at position 8 or 3′ were detected	a compound into which prenyl had been introduced at position 6 and a compound into which prenyl was deduced to have been introduced at position 8 or 3′ were detected
COc1cc(O)c2c(c1)O[C@H](c1ccc(O)cc1)CC2=O [sakuranetin]	activity of transferring a prenyl group to all substrates was observed	–	–
O=C1c2c(O)cc(O)cc2O[C@H](c2ccc(O)c(O)c2)[C@H]1O [taxifolin]	activity of transferring a prenyl group to all substrates was observed	–	–
